Test results: US12714698B2, “Compositions and methods for treating or preventing dermal disorders” (Drexel University, priority 2015, dated 2026)

Key:
[1] = test system: ribosomal S6 protein and MDM2; assay: Immunoblot of ribosomal S6 protein and MDM2 phosphorylation (mTORC1/p70S6K signaling); assay type: cell-based, human; conditions: agent added to NRTI-exposed cardiac fibroblasts
Method: (§1) Cell culture experiments utilizing NRTIs were of the following design. Cultures of either human lung or cardiac fibroblasts were cultivated according to standard culture protocols for these cells (Cristofalo, et al., Journal of Tissue Culture Methods 1980, 6:117-121). Parallel sets of cultures were maintained in normal growth media or in normal growth media with the addition of 1 nM rapamycin. Cultures were maintained with 1 nM rapamycin (Enzo Biologicals) for two weeks before exposure to NRTIs. Cell cultures were exposed to NRTIs at indicated concentrations in individual experiments (generally 10-20 μg/ml) for 7 days, with a change of media and fresh NRTIs at day 4. Mitochondrial measurements, bioanalyzer measurements, immunoblotting for protein expression and phosphorylation status, and assays for senescence were performed at the end of this 7-day period.
(§2) Cell culture reagents were from Cellgro, unless indicated. WI-38 fetal-lung primary human fibroblasts or human cardiac fibroblasts were grown in MEM supplemented with 10% fetal bovine serum, 1% L-glutamine, MEM vitamins, and MEM non-essential amino acids. Cells were maintained in a 37° C. in 5% CO2 incubator. For treatment studies, cells were treated with 1 nM rapamycin (Enzo Biologicals) for two weeks before treatment with NRTIs. Cells were maintained by trypsinization and reseeding at a cell density of 1×10^4/cm^2 every 7 to 10 days. Emtricitabine (FTC) and tenofovir disoproxil fumarate (TDF) were kindly provided by the NIH AIDS Research & Reference Reagent program. During the 7-day exposure to the NRTIs, the pharmacologic inhibitors PD98059 (10 μM, Santa Cruz Biotechnologies), BI-D1870, GW5074, and SB203580 (10 μM, Enzo Biologicals) were added to the culture medium either during the final 48 hours or for the final 2 hours depending upon the experiment. During the 7-day exposure to NRTIs, Trolox (500 μM) and N-acetylcysteine (100 μM, Acros Organics) were added every other day. Mito-Q (20 nM) and TPP (20 nM) were kindly provided by Dr. Brett Kaufmann at the University of Pennsylvania School of Veterinary Medicine. Vector and mt-catalase adenoviruses (MOI's 25, 50, and 75) were purchased from Gene Transfer Vector Core from the University of Iowa.
Cell protein extracts were prepared by extracting with radioimmunoprecipitation assay (RIPA) buffer containing a protease inhibitor cocktail (Sigma-Aldrich) and phosphatase inhibitors, NaF and sodium orthovanadate. Protein concentration was quantified using a bicinchoninic acid (BCA) assay (Pierce Biotechnology). Western blot analysis was performed using 15 to 30 μg of protein extracts that were run on SDS-PAGE and transferred onto nitrocellulose (Biorad) membranes. Blots were incubated with antibodies specific for: beta-actin (Sigma-Aldrich), TFAm, parkin, p16, phospho(S82)HSP27, HSP27 (Santa Cruz Biotechnologies), p53, 21, catalase, MDM2 (EMD Millipore), VDAC, phospho(S235/236)-ribosomal protein S6, ribosomal protein S6, phospho(S166)-MDM2, phospho(5473)-AKT, AKT, beta-tubulin (Cell Signaling), p62 (Enzo Biologicals), IL-6 (NeoBiolab), lamin B1, PINK1, and Mitoprofile Total OXPHOS Cocktail (complex I-NDUFB8 subunit, CII-SDHB subunit, […]2 subunit, and CIV-mitochondrial COX1 subunit) (Abcam) according to manufacturers' instructions. Western blots were visualized using IRDye 680 and 800 LI-COR secondary antibodies on a LI-COR Odyssey using LI-COR Odyssey software version 3.0 (LI-COR Biosciences). For co-immunoprecipitation, cell protein extracts were prepared in HNTG buffer containing a protease inhibitor cocktail and quantified using BCA assay. Protein extracts at the concentration of 0.5 mg were pre-cleared with protein A/G beads (Santa Cruz Biologicals) for 30 minutes. After centrifugation at 2,000 rpm for 5 minutes at 4° C., the supernatant was incubated with the primary antibody at manufacturer's recommended concentration overnight at 4° C. An IgG antibody (Cell Signaling) was used as a non-specific control.

[2] = test system: human cardiac fibroblasts; assay: Mitochondrial membrane potential, mass, superoxide and total ROS by flow cytometry; assay type: cell-based; conditions: cultures grown with 1 nM rapamycin, NRTIs 7 days
Method: as §1, §2
Mitochondrial membrane potential was detected by incubating cells with 25 nM TMRE (Molecular Probes). Mitochondrial mass was evaluated by incubating the cells with 100 nM Mitotracker Green FM (Molecular Probes). Mitochondrial superoxide anion levels were detected by incubating the cells with 5 μM MitoSox Red (Molecular Probes). Total cellular levels of ROS were detected by incubating the cells with 10 μM 2′,7′-dichlorofluoroscein diacetate (DCF-DA; Sigma-Aldrich) in 1% fetal bovine serumsupplemented MEM and washing twice with Krebs Ringer phosphate glucose buffer (145 mM NaCl, 5.7 mM NaH2PO4, 4.86 mM KCL, 0.54 mM CaCl2), 1.22 mM MgSO4, and 5.5 mM glucose) following the incubation period. For the aforementioned assessments, incubation was performed at 37° C. in 5% CO2 for 30 minutes and cells were harvested in 2.5% trypsin-EDTA with serum-containing medium. Cells were immediately analyzed with a Guava EasyCyte Mini employing the Guava Express Plus program (Guava Technologies).

[3] = test system: dermal atrophy and actinic keratosis; assay: Single site open label study, topical application in a patient; assay type: in vivo, human; conditions: 14 days of rapamycin treatment in an emulsified gel preparation, digital caliper
Method: In certain embodiments, dermal atrophy is evaluated by measurement of the dermal layer utilizing a calibrated digital caliper measurement of the dermal layer. In other embodiments, improvement in seborrheic keratosis, lentigines, pseudoscars, coarse wrinkles, and epidermal thickening is evaluated through an investigator evaluation rating scale of 1-4, in which 1 is normal with no sign of lesion; 2 represents minor lesions; 3 represents lesions that are distinct features relative to normal skin; and 4 represents lesions that are of high severity. […] In yet other embodiments, lesions are evaluated by area measurement using manual measurement of the lesion or through analysis of images taken by investigators or research study staff.
Patients presenting to a physician with a diagnosis of dermal atrophy, seborrheic keratosis, actinic keratosis, lentigines, senile pseudoscars, or coarse wrinkles were selected for administration of a composition of the invention. Dermal thickness was quantified using a Mitoutoyo digital caliper with certified accuracy to 0.001 mm. […]
A single site open label study was performed. A patient presenting with an area of dermal atrophy and actinic keratosis on the hand was evaluated for application of Formulation R. the contralateral hand with similar dermal thickness but no actinic keratosis was used as a control. […]

## CO[C@H]1C[C@@H]2CC[C@@H](C)[C@@](O)(O2)C(=O)C(=O)N2CCCC[C@H]2C(=O)O[C@H]([C@H](C)C[C@@H]2CC[C@@H](O)[C@H](OC)C2)CC(=O)[C@H](C)/C=C(\C)[C@@H](O)[C@@H](OC)C(=O)[C@H](C)C[C@H](C)/C=C/C=C/C=C/1C [rapamycin]
[1]
  MDM2 phosphorylation in cells exposed to NRTIs: no increase
  ribosomal S6 phosphorylation in cells exposed to NRTIs: complete lack
[2]
  mitochondrial ROS following exposure to NRTIs: did not exhibit the same level of increase
  mitochondrial membrane potential following exposure to NRTIs: did not exhibit the same level of increase
  total cellular ROS following exposure to NRTIs: did not exhibit the same level of increase
[3]
  dermal thickness in atrophic skin: increases dermal thickness
